Results on 22 molecules are retold here after patent US11306084B2, “Integrin antagonists” (Saint Louis University, priority 2016, dated 2022).

Counter-ions that a name gives are not always drawn.

The target in assay [1] is T1, Recombinant human integrin ανβ5 (Homo sapiens, UniProt P06756+P18084).
T1 construct: purchased R&D Systems 2528-AV
The assay is described as follows: Solid Phase Receptor Assay (SPRA) for ανβ5 function. Format: binding. The settings on record: plate-bound human vitronectin; read-out: αvβ5 SPRA IC50. Here is the method: D. Solid Phase Receptor Assay (SPRA) for ανβ5 Function
Wells were washed 3 times with 150 μL TBS+ and then 150 μL of blocking buffer (TBS+ with 1% bovine serum albumin, Sigma A7906) was added. The plate was incubated for 1 hr at 37° C. and then washed 3× with TBS+ buffer. […] Compounds were diluted to 20 μM and then 1 μL was added to each well of the plate according to a standard template with each sample repeated in triplicate. After incubation for two hours at room temperature, the plate was washed 3× with 150 μL of TBS+ buffer. To each well, 50 μl of biotinylated anti-αν antibody (R&D Systems, BAF1219) at 0.5 μg/mL in TBS+/0.1% BSA at 0.5 μg/mL were added and the plate covered and incubated for 1 hr at room temperature. After washing the plate 3 with 150 μL of TBS+ buffer, 50 μL of streptavidin-conjugated horseradish peroxidase (R&D Systems, DY998) diluted in TBS+ blocking buffer were added to the wells and the plate incubated for 20 min at room temperature. The plate was washed 3× with TBS+ buffer followed by 50 μL of TMB substrate (Sigma T4444) added to each well in the dark and the plate incubated for 5 min at room temperature. 25 μL of 1.0 M phosphoric acid was added as a stop solution and the plates were read at 450 nm using a Spectramax plate reader.

Assay [2] addresses T2, Recombinant human integrin ανβ6 (Homo sapiens, UniProt P06756+P18564).
T2 construct: purchased R&D Systems 3817-AV
The assay can be described thus: Solid Phase Receptor Assay (SPRA) for ανβ6 function. Conditions: plate-bound human LAP; read-out: αvβ6 SPRA IC50. The class given is binding. Here is the method: E. Solid Phase Receptor Assay (SPRA) for ανβ6 Function
Wells were washed 3 times with 150 μL TBS+, and then 150 μL of blocking buffer (TBS+ with 1% bovine serum albumin, Sigma A7906) was added. The plate was incubated for 1 hr at 37° C., and then washed 3× with TBS+ buffer. […] Compounds were diluted to 20 μM and then 1 μL was added to each well of the plate according to a standard template with each sample repeated in triplicate. After incubation for two hours at room temperature, the plate was washed 3× with 150 μL of TBS+ buffer. To each well, 50 μL of biotinylated anti-αν antibody (R&D Systems, BAF1219) at 0.5 μg/mL in TBS+/0.1% BSA were added and the plate was covered and incubated for 1 hr at room temperature. After washing the plate 3× with 150 μL of TBS+ buffer, 50 μL of streptavidin-conjugated horseradish peroxidase (R&D Systems, DY998) diluted in TBS+ blocking buffer were added to the wells and the plate incubated for 20 min at room temperature. The plate was washed 3× with TBS+ buffer followed by 50 μL of TMB substrate (Sigma T4444) added to each well in the dark and the plate incubated for 10 min at room temperature. 25 μL of 1.0 M phosphoric acid was added as a stop solution and the plates were read at 450 nm using a Spectramax plate reader.

T1 sequence (P06756 31-992 limits assumed): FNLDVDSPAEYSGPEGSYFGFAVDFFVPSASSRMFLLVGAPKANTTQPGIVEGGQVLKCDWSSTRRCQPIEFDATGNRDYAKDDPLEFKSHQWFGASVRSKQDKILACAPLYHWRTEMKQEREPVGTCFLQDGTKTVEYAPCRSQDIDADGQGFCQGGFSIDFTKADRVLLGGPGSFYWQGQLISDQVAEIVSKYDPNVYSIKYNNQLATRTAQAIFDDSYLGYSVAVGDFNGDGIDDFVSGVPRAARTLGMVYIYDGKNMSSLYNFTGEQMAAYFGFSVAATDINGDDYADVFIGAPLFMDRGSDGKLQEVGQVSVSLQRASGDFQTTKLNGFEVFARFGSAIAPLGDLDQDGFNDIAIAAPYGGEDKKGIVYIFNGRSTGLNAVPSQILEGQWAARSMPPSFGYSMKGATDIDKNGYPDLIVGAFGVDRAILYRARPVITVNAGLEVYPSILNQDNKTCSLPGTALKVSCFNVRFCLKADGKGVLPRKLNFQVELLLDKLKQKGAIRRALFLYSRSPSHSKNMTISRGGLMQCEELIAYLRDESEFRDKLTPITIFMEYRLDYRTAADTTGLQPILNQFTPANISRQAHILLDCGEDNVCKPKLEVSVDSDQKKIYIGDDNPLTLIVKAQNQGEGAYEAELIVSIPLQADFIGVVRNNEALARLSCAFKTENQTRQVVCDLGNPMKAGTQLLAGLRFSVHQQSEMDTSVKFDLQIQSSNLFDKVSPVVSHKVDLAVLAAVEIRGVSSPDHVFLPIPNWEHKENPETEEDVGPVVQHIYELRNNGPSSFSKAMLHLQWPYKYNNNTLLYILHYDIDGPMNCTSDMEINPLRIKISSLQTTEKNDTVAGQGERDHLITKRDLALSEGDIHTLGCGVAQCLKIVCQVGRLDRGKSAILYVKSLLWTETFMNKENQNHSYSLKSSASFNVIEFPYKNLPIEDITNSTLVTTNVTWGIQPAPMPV
T1 sequence (P18084 24-719 limits assumed): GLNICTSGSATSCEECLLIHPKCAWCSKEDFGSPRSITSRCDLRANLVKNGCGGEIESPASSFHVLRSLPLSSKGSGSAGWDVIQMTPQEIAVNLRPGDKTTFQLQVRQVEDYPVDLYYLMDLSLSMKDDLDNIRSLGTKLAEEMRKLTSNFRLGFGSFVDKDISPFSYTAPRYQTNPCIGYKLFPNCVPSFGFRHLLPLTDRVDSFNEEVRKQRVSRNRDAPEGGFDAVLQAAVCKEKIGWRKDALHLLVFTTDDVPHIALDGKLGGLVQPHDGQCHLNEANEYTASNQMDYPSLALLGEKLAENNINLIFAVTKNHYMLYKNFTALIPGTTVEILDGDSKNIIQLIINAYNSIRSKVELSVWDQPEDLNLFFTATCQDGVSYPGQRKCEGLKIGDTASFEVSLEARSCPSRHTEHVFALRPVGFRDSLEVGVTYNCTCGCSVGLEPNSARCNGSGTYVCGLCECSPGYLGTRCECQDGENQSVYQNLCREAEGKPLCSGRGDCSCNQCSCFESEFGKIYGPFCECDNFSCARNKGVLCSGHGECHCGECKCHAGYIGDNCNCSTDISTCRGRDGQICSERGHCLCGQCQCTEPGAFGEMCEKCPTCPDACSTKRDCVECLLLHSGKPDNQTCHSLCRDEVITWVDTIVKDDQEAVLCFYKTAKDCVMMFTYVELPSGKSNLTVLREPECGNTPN
T2 sequence (P06756 31-992 limits assumed): as the sequence (P06756 31-992 limits assumed) above
T2 sequence (P18564 22-707 limits assumed): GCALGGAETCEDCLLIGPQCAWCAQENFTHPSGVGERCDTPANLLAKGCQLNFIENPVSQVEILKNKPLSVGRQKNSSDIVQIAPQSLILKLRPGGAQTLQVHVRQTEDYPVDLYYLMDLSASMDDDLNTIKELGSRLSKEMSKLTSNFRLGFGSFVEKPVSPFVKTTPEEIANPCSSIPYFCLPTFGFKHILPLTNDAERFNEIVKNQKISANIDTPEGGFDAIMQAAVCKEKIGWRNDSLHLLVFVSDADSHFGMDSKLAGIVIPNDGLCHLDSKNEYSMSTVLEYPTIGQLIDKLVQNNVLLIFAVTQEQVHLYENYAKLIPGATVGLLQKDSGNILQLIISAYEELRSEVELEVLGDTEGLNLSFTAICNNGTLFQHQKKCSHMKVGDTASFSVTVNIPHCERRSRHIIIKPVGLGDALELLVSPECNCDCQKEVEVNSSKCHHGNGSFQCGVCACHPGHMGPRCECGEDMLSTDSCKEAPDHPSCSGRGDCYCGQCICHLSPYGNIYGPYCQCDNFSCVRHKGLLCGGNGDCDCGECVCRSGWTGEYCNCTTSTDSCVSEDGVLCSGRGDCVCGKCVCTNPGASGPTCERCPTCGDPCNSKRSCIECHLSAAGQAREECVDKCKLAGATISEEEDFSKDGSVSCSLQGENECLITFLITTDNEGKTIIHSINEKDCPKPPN

The IC50 is the concentration that inhibits the measured activity by half. In the case of `Cn1nc(CC(CC(=O)O)c2ccc3c(c2)OCCO3)cc1OCCc1ccc2c(n1)NCCC2` (centres unmarked) [Example 1, 3-(2,3-dihydrobenzo[b][1,4]dioxin-6-yl)-4-(1-methyl-5-(2-(5,6,7,8-tetrahydro-1,8-naphthyridin-2-yl)ethoxy)-1H-pyrazol-3-yl)butanoic Acid], the results for the IC50 in assay [1] and in assay [2] were 0.9 nM and 35 nM, respectively.

With `Cn1nc(CC(CC(=O)O)c2cc(F)cc(Cl)c2)cc1OCCc1ccc2c(n1)NCCC2` (centres unmarked) [Example 2, 3-(3-chloro-5-fluorophenyl)-4-(1-methyl-5-(2-(5,6,7,8-tetrahydro-1,8-naphthyridin-2-yl)ethoxy)-1H-pyrazol-3-yl)butanoic Acid], the IC50 in assay [1] was determined as 0.3 nM; in assay [2], 43 nM.

For `COc1ccc(C(CC(=O)O)Cc2cc(OCCc3ccc4c(n3)NCCC4)n(C)n2)cc1F` (centres unmarked) [Example 3, 3-(3-fluoro-4-methoxyphenyl)-4-(1-methyl-5-(2-(5,6,7,8-tetrahydro-1,8-naphthyridin-2-yl)-ethoxy)-1H-pyrazol-3-yl)butanoic Acid], the results for the half-maximal inhibitory concentration (IC50) in assay [1] and in assay [2] were 0.4 nM and 99 nM, respectively.

For `Cn1nc(CC(CC(=O)O)c2ccc(Br)c(F)c2)cc1OCCc1ccc2c(n1)NCCC2` (centres unmarked) [Example 4, 3-(4-bromo-3-fluorophenyl)-4-(1-methyl-5-(2-(5,6,7,8-tetrahydro-1,8-naphthyridin-2-yl)ethoxy)-1H-pyrazol-3-yl)butanoic Acid], the values for the concentration for half-maximal inhibition (IC50) in assay [1] and in assay [2] were 0.5 nM and 189 nM, respectively.

Consider `Cn1nc(CC(CC(=O)O)c2ccc(F)c(Br)c2)cc1OCCc1ccc2c(n1)NCCC2` (centres unmarked) [Example 5, 3-(3-bromo-4-fluorophenyl)-4-(1-methyl-5-(2-(5,6,7,8-tetrahydro-1,8-naphthyridin-2-yl)ethoxy)-1H-pyrazol-3-yl)butanoic Acid], for which the values for the half-inhibitory concentration (IC50) in assay [1] and in assay [2] were 0.4 nM and 73 nM, respectively.

For the molecule `Cn1nc(CC(CC(=O)O)c2cccc(Br)c2)cc1OCCc1ccc2c(n1)NCCC2` (centres unmarked) [Example 6, 3-(3-bromophenyl)-4-(1-methyl-5-(2-(5,6,7,8-tetrahydro-1,8-naphthyridin-2-yl)ethoxy)-1H-pyrazol-3-yl)butanoic Acid], the IC50 was found to be 0.4 nM in assay [1] and 8 nM in assay [2].

`Cn1nc(CC(CC(=O)O)c2ccc(F)c(C#N)c2)cc1OCCc1ccc2c(n1)NCCC2` (centres unmarked) [Example 7, 3-(3-cyano-4-fluorophenyl)-4-(1-methyl-5-(2-(5,6,7,8-tetrahydro-1,8-naphthyridin-2-yl)ethoxy)-1H-pyrazol-3-yl)butanoic Acid]: the results for the IC50 in assay [1] and in assay [2] were 0.6 nM and 50 nM, respectively.

Consider `Cn1nc(CC(CC(=O)O)c2ccc(C#N)c(F)c2)cc1OCCc1ccc2c(n1)NCCC2` (centres unmarked) [Example 8], for which the IC50 in assay [1] amounted to 1 nM; in assay [2], 52 nM.

Consider `Cn1nc(CC(CC(=O)O)c2cccc(C#N)c2)cc1OCCc1ccc2c(n1)NCCC2` (centres unmarked) [Example 9, 3-(3-cyanophenyl)-4-(1-methyl-5-(2-(5,6,7,8-tetrahydro-1,8-naphthyridin-2-yl)ethoxy)-1H-pyrazol-3-yl)butanoic Acid], for which the results for the IC50 in assay [1] and in assay [2] were 0.2 nM and 12 nM, respectively.

Take `Cn1nc(CC(CC(=O)O)c2cc(Br)cc(C(F)(F)F)c2)cc1OCCc1ccc2c(n1)NCCC2` (centres unmarked) [Example 10, 3-(3-bromo-5-(trifluoromethyl)phenyl)-4-(1-methyl-5-(2-(5,6,7,8-tetrahydro-1,8-naphthyridin-2-yl)ethoxy)-1H-pyrazol-3-yl)butanoic Acid]: the half-maximal inhibitory concentration (IC50) in assay [1] is 1 nM; in assay [2] it was 25 nM.

Turning to `Cn1nc(CC(CC(=O)O)c2cc(Br)cc(OC(F)(F)F)c2)cc1OCCc1ccc2c(n1)NCCC2` (centres unmarked) [Example 11, 3-(3-bromo-5-(trifluoromethoxy)phenyl)-4-(1-methyl-5-(2-(5,6,7,8-tetrahydro-1,8-naphthyridin-2-yl)ethoxy)-1H-pyrazol-3-yl)butanoic Acid], the IC50 in assay [1] worked out at 0.8 nM; in assay [2] it was 60 nM.

In the case of `COc1ccc(C(F)(F)F)cc1C(CC(=O)O)Cc1cc(OCCc2ccc3c(n2)NCCC3)n(C)n1` (centres unmarked) [Example 13, 3-(2-methoxy-5-(trifluoromethyl)phenyl)-4-(1-methyl-5-(2-(5,6,7,8-tetrahydro-1,8-naphthyridin-2-yl)ethoxy)-1H-pyrazol-3-yl)butanoic Acid Trifluoroacetate], the IC50 in assay [1] was 16 nM; in assay [2], 51 nM.

On to `COc1ccc(Br)cc1C(CC(=O)O)Cc1cc(OCCc2ccc3c(n2)NCCC3)n(C)n1` (centres unmarked) [Example 14, 3-(5-bromo-2-methoxyphenyl)-4-(1-methyl-5-(2-(5,6,7,8-tetrahydro-1,8-naphthyridin-2-yl)ethoxy)-1H-pyrazol-3-yl)butanoic acid trifluoroacetate], for which the IC50 in assay [1] was determined as 7.9 nM; in assay [2] it was 22 nM.

Take `COc1ccc([C@H](CC(=O)O)Cc2cc(OCCc3ccc4c(n3)NCCC4)n(C)n2)cc1F` [Example 15, (3S)-3-(3-fluoro-4-methoxyphenyl)-4-(1-methyl-5-(2-(5,6,7,8-tetrahydro-1,8-naphthyridin-2-yl)ethoxy)-1H-pyrazol-3-yl)butanoic Acid]: the 50% inhibitory concentration (IC50) came out at 0.3 nM in assay [1] and 49 nM in assay [2].

With `Cn1nc(CC(CC(=O)O)c2cc(Br)cc(C(C)(C)C)c2)cc1OCCc1ccc2c(n1)NCCC2` (centres unmarked) [Example 16, 3-(3-bromo-5-tert-butyl-phenyl)-4-(1-methyl-5-(2-(5,6,7,8-tetrahydro-1,8-naphthyridin-2-yl)ethoxy)-1H-pyrazol-3-yl)butanoic Acid], the concentration for half-maximal inhibition (IC50) in assay [1] came out at 3.1 nM; in assay [2], 80 nM.

Turning to `Cn1nc(CC(CC(=O)O)c2cc(C#N)cc(C(C)(C)C)c2)cc1OCCc1ccc2c(n1)NCCC2` (centres unmarked) [Example 17], the IC50 in assay [1] is 0.4 nM; in assay [2], 28 nM.

With `Cn1nc(CC(CC(=O)O)c2cc(C(C)(C)C)cc(C(C)(C)C)c2)cc1OCCc1ccc2c(n1)NCCC2` (centres unmarked) [Example 18, 3-(3,5-di-tert-butylphenyl)-4-[1-methyl-5-[2-(5,6,7,8-tetrahydro-1,8-naphthyridin-2-yl)ethoxyl]pyrazol-3-yl]butanoic Acid], the figures for the half-maximal inhibitory concentration (IC50) in assay [1] and in assay [2] were 180 nM and 620 nM, respectively.

Consider `Cn1nc(CC(CC(=O)O)c2cc(Br)cc(C3(C(F)F)CC3)c2)cc1OCCc1ccc2c(n1)NCCC2` (centres unmarked) [Example 19, 3-(3-bromo-5-(1-(difluoromethyl)cyclopropyl)phenyl)-4-(1-methyl-5-(2-(5,6,7,8-tetrahydro-1,8-naphthyridin-2-yl)ethoxy)-1H-pyrazol-3-yl)butanoic Acid], for which the half-maximal inhibitory concentration (IC50) turned out to be 1.2 nM in assay [1] and 45 nM in assay [2].

In the case of `Cn1nc(CC(CC(=O)O)c2cc(C#N)cc(C3(C(F)F)CC3)c2)cc1OCCc1ccc2c(n1)NCCC2` (centres unmarked) [Example 20, 3-(3-cyano-5-(1-(difluoromethyl)cyclopropyl)phenyl)-4-(1-methyl-5-(2-(5,6,7,8-tetrahydro-1,8-naphthyridin-2-yl)ethoxy)-1H-pyrazol-3-yl)butanoic Acid], the IC50 stood at 0.2 nM in assay [1] and 17 nM in assay [2].

Regarding `Cn1nc(CC(CC(=O)O)c2cc(F)cc(C3(C(F)F)CC3)c2)cc1OCCc1ccc2c(n1)NCCC2` (centres unmarked) [Example 21, 3-(3-(1-(difluoromethyl)cyclopropyl)-5-fluorophenyl)-4-(1-methyl-5-(2-(5,6,7,8-tetrahydro-1,8-naphthyridin-2-yl)ethoxy)-1H-pyrazol-3-yl)butanoic Acid], the IC50 in assay [1] was found to be 0.2 nM; in assay [2], 47 nM.

`Cn1nc(CC(CC(=O)O)c2cc(Cl)cc(C3(C(F)F)CC3)c2)cc1OCCc1ccc2c(n1)NCCC2` (centres unmarked) [Example 22, 3-(3-chloro-5-(1-(difluoromethyl)cyclopropyl)phenyl)-4-(1-methyl-5-(2-(5,6,7,8-tetrahydro-1,8-naphthyridin-2-yl)ethoxy)-1H-pyrazol-3-yl)butanoic Acid]: the IC50 was found to be 0.6 nM in assay [1] and 26 nM in assay [2].

In the case of `Cn1nc(CC(CC(=O)O)c2cc(C(F)(F)F)cc(C3(C(F)F)CC3)c2)cc1OCCc1ccc2c(n1)NCCC2` (centres unmarked) [Example 23, 3-(3-(1-(difluoromethyl)cyclopropyl)-5-(trifluoromethyl)phenyl)-4-(1-methyl-5-(2-(5,6,7,8-tetrahydro-1,8-naphthyridin-2-yl)ethoxy)-1H-pyrazol-3-yl)butanoic Acid], the IC50 amounted to 6.5 nM in assay [1] and 38 nM in assay [2].
